Patent publication US6747012B1, “Crystalline anthracycline antibiotic and process for producing the same” (Mercian Corporation, priority 1997, dated 2004)

Experiments:
Type in all cases: physicochemical
[1] = Residual solvent content by gas chromatography; settings: for Residual solvent content (%): gas chromatography (GC), hydrochloride
Experimental: Each of the same samples as used in Example 12 was analyzed by gas chromatography (GC) to determine its residual solvent content.
(Operating Conditions for Analysis by GC)
Detector: Flame ionization detector.
Column temperature: Operated at 40° C. for 5 minutes, and then raised to 80° C. in 5 minutes and held at that temperature.
Vaporization chamber temperature: A constant temperature around 200°.
Flow rate: A constant flow rate at which the retention time of an internal standard substance (dioxane) is about 6 minutes.

[2] = Tests for hygroscopicity (critical relative humidity); settings: for Critical relative humidity (%): stored at 30° C., relative humidities 32 to 91%, until steady state, calculated from increases or decreases in moisture content, hydrochloride
Experimental: Samples of the powders (or crystalline powders) obtained in Examples 1-8 were stored at 30° C. and at relative humidities ranging from 32 to 91%. Their moisture contents were measured until a steady state was reached.

[3] = Tests for chemical stability (storage at 60° C., HPLC); settings: for Amount of remaining DM (%): hermetically sealed container, 60° C. for 1 month, HPLC, hydrochloride
Experimental: Each of the same samples as used in Example 12 was placed in a hermetically sealed container and stored at 60° C. for 1 month. Then, the sample was analyzed by HPLC to determine the DM content in the sample.
(Conditions for Analysis by HPLC)
Column: YMC A-312 (ODS) (manufactured by YMC Co., Ltd.).
Mobile phase: Acetonitrile-water (38:62) (adjusted to pH 2.2 with phosphoric acid).
Flow velocity: About 1.5 ml/min.

SMILES	Residual solvent content (%) [1]	Critical relative humidity (%) [2]	Amount of remaining DM (%) [3]	residual solvent content (in words) ([1]; conclusion from Table 3)	hygroscopicity (in words) ([2]; conclusion from Table 1)	chemical stability (in words) ([3]; conclusion from Table 2)
COc1cccc2c1C(=O)c1c(O)c3c(c(O)c1C2=O)CC(O)(C(C)=O)CC3OC1CC(N)C(O)C(C)O1.Cl (stereo not drawn) [Ex.8, DM hydrochloride]	0.95%	53%	96.5%	–	–	–
COc1cccc2c1C(=O)c1c(O)c3c(c(O)c1C2=O)CC(O)(C(C)=O)CC3OC1CC(N)C(O)C(C)O1.Cl (stereo not drawn) [Ex.4, DM hydrochloride]	0.50%	28%	90.4%	–	–	–
COc1cccc2c1C(=O)c1c(O)c3c(c(O)c1C2=O)CC(O)(C(C)=O)CC3OC1CC(N)C(O)C(C)O1.Cl (stereo not drawn) [Ex.5, DM hydrochloride]	0.19%	29%	97.5%	–	–	–
COc1cccc2c1C(=O)c1c(O)c3c(c(O)c1C2=O)CC(O)(C(C)=O)CC3OC1CC(N)C(O)C(C)O1.Cl (stereo not drawn) [Ex.7, DM hydrochloride]	0.05%	41%	97.2%	–	–	–
COc1cccc2c1C(=O)c1c(O)c3c(c(O)c1C2=O)CC(O)(C(C)=O)CC3OC1CC(N)C(O)C(C)O1.Cl (stereo not drawn) [Ex.1, DM hydrochloride]	0.14%	34%	91.4%	–	–	–
COc1cccc2c1C(=O)c1c(O)c3c(c(O)c1C2=O)CC(O)(C(C)=O)CC3OC1CC(N)C(O)C(C)O1.Cl (stereo not drawn) [Ex.2, DM hydrochloride]	0.40%	73%	100%	within an acceptable limit	very low hygroscopicity	excellent chemical stability
COc1cccc2c1C(=O)c1c(O)c3c(c(O)c1C2=O)CC(O)(C(C)=O)CC3OC1CC(N)C(O)C(C)O1.Cl (stereo not drawn) [Ex.3, DM hydrochloride]	0.03%	41%	97.1%	–	–	–
COc1cccc2c1C(=O)c1c(O)c3c(c(O)c1C2=O)CC(O)(C(C)=O)CC3OC1CC(N)C(O)C(C)O1.Cl (stereo not drawn) [Ex.6, DM hydrochloride]	0.18%	29%	94.2%	–	–	–
